# Values quoted from earlier work as cited in patent US6156769A (priority 2000, dated 2000).
# Tested on: pruritus
# Conditions: i.v. morphine
structure (smiles),measurement,value
CN1CC[C@]23c4c5ccc(O)c4O[C@H]2[C@@H](O)C=C[C@H]3[C@H]1C5 [morphine],generalized itching,about 1 % of patients
